Measurements reported in patent publication US7429460B2, “Methods of screening for inhibitors of phospholipid synthesis related to glycolipid-storage diseases” (Yeda Research and Development Co., Ltd., priority 2003, dated 2008).

Tests used:
[1] = test system: rat hippocampal neurons; test: Labeling of neuronal lipids with [14C]methyl choline; assay type: cell-based; conditions: after 4-days of treatment, remained elevated for at least 8-days
Protocol: Neurons were incubated for 48 h with 1 μCi [^14C]methyl choline/ml of culture medium. Subsequently, medium was removed and the neurons were washed 3-times with phosphate-buffered saline. Neurons were removed from the cover slips by scraping with a rubber policeman into 2 ml of cold methanol, and then sonicated. Part of the resulting suspension was used for lipid analysis, part for analysis of the incorporation of total radioactivity into the cells, and part for DNA analysis (see below).
Lipids were extracted by addition of chloroform to obtain a final chloroform/methanol ratio of 1:1 (v/v). The lower phase was dried under N2 and the upper phase was kept for analysis of [^14C]methyl choline incorporation into water-soluble metabolites. […] One ml of methanol and 5 ml of Optima Gold scintillation fluid (Packard, Downers Groove, Ill.) were added to each vial for scintillation counting, and radioactivity was determined in a Packard 2100 beta radiospectrometer equipped with the Transformed Spectral Index of the External Standard/Automatic Efficiency Control (tSIE/AEC) program for quench correction and counting of double radiolabeled samples.

[2] = test system: rat hippocampal neurons; test: [14C]PC degradation and acetolysis of [14C]PC in neurons; assay type: cell-based; conditions: CBE-treated neurons
Protocol: In some cases, acetolysis was performed to determine the amount of [^14C]-radioactivity that remained in the [^14C]methyl choline head group moiety of [^14C]PC after 48 h labeling with [^14C]methyl choline. [^14C]PC was removed from TLC plates by scraping, eluted from the silica using chloroform/methanol/acetic acid/water (50:39:1:10, v/v/v/v), and subjected to acetolysis. Briefly, 2 ml of acetic anhydride/acetic acid (2:3, v/v) was added to the tubes containing [^14C]PC, the mixture heated at 140° C. for 16 h, 200 μl of water added to each tube, dried under N2, and separated into aqueous and organic phases. […] [^14C]-Lipids and the [^14C]-head group polar moieties were analyzed and quantified as above.
Since metabolic labeling with [^14C]methyl choline was performed for up to 48 h (due to the relatively low amount of neurons available), we analyzed whether the increase in [^14C]methyl choline levels was due to changes in the rate of [^14C]PC synthesis or in the rate of [^14C]PC degradation. Neurons were incubated with [^14C]methyl choline to metabolically label [^14C]PC, and the rate of [^14C]PC degradation measured. No difference in the rate of degradation between control and CBE-treated neurons was detected (FIG. 3). […]

[3] = test system: CCT α and β1/2 RNA; test: RT-PCR of CCT isoforms in treated neurons; assay type: cell-based, rat; conditions: 500 μM CBE, up to 8-days
Protocol: Total cellular RNA was prepared from ˜0.5×10^6 neurons grown on 24 mm cover slips using the RNeasy Mini Kit (Qiagen, Hilden, Germany) according to manufacturers'instructions. The reverse transcription-polymerase chain reaction (RT-PCR) was performed using the QIAGEN OneStep RT-PCR kit (Qiagen, Hilden, Germany). Briefly, each reaction contained 10 ng of total RNA, 0.6 μM of primers, 1.6 mM deoxynucleotide triphosphates (0.4 mM each) and 1 μl QIAGEN OneStep RT-PCR Enzyme Mix in the supplied buffer in a total volume of 25 μl. Primers (CCT: 5′-ACTTTAGTAA GCCCTATGTC (SEQ ID NO. 7) and 5′-[…] (SEQ ID NO. 8), 34 cycles, annealing temperatures 53° C.; CCT: 5′-[…] (SEQ ID NO. 9) and 5′-[…] (SEQ ID NO. 10), 30 cycles, annealing temperature 51° C.; glyceraldehyde -3-phosphate dehydrogenase: 5′-TTAGCACCCCTGGCCAAGG (SEQ ID NO. 11) and 5′- ATTACTCCTT GGAGGCCATG (SEQ ID NO. 12), 23 cycles, annealing temperature 50° C.) were designed using the MacMolly Tetra program (Sofigene, Berlin, Germany) and were synthesized by the Weizmann Institute Oligonucleotide and Peptide Synthesis facility. […] PCR products, 9 μl each, were analyzed by electrophoresis in 1.5 % agarose gels.

[4] = test system: rat hippocampal neurons; conditions: 200 μM CBE, after 3 days in culture; cited from earlier work
[5] = test system: rat hippocampal neurons; conditions: 500 μM CBE for 4- or 8-days; cited from earlier work

## O[C@H]1[C@H](O)[C@@H](O)[C@@H]2O[C@@H]2[C@@H]1O (racemic) [CBE, conduritol-B-epoxide]
[1]
  [14C]methyl choline incorporation into [14C]SM and [14C]PC: significant increase
[2]
  rate of [14C]PC degradation versus control: No difference
[3]
  CCT RNA levels (RT-PCR): No changes
[4]
  axons longer than untreated counterparts: ~20%
[5]
  increase in the rate of incorporation of [3H]dihydrosphingosine into [3H]GlcCer: 4-5 fold
